These molecules were tested on HCI-025 (organoid from a breast cancer xenograft) (assay: CTG-3D luminescence at 96 h relative to day-0 seeding control (ratio to day 0); higher = more growth / less cytotoxicity; PDxO 3D drug screen (set 2), 96 h, CTG-3D normalised to day-0 seeding control.). Details: 10 µM; days in culture: 224.

| Structure (SMILES) | CTG-3D luminescence at 96 h |
| --- | --- |
| CS(=O)(=O)CCNCc1ccc(-c2ccc3ncnc(Nc4ccc(OCc5cccc(F)c5)c(Cl)c4)c3c2)o1 [lapatinib] | 0.896 |
| CCOc1ccn(-c2ccc(F)cc2)c(=O)c1C(=O)Nc1ccc(Oc2ccnc(N)c2Cl)c(F)c1 [ASLAN002] | 1.87 |
| Nc1cc(C(F)(F)F)c(-c2cc(N3CCOCC3)nc(N3CCOCC3)n2)cn1 [buparlisib] | 0.339 |

Same assay, conditions: 100 µM; days in culture: 175

| Structure (SMILES) | CTG-3D luminescence at 96 h |
| --- | --- |
| CC(C)n1nc(-c2ccc3oc(N)nc3c2)c2c(N)ncnc21 [sapanisertib] | 0.283 |
| C[C@@H](Nc1cc(F)cc(F)c1)c1cc(C(=O)N(C)C)cc2c(=O)cc(N3CCOCC3)oc12 [AZD-8186] | 1.34 |
| CC(=O)c1c(C)c2cnc(Nc3ccc(N4CCNCC4)cn3)nc2n(C2CCCC2)c1=O [palbociclib] | 1.24 |
| Cc1c(CN2CCN(C(=O)[C@H](C)O)CC2)sc2c(N3CCOCC3)nc(-c3cnc(N)nc3)nc12 [apitolisib] | 0.419 |
| CS(=O)(=O)CCNCc1ccc(-c2ccc3ncnc(Nc4ccc(OCc5cccc(F)c5)c(Cl)c4)c3c2)o1 [lapatinib] | 0.00817 |
| CCOc1ccn(-c2ccc(F)cc2)c(=O)c1C(=O)Nc1ccc(Oc2ccnc(N)c2Cl)c(F)c1 [ASLAN002] | 1.7 |
| Nc1cc(C(F)(F)F)c(-c2cc(N3CCOCC3)nc(N3CCOCC3)n2)cn1 [buparlisib] | 0.118 |

Same assay, conditions: 100 µM; days in culture: 189

| Structure (SMILES) | CTG-3D luminescence at 96 h |
| --- | --- |
| CC(C)n1nc(-c2ccc3oc(N)nc3c2)c2c(N)ncnc21 [sapanisertib] | 0.0962 |
| C[C@@H](Nc1cc(F)cc(F)c1)c1cc(C(=O)N(C)C)cc2c(=O)cc(N3CCOCC3)oc12 [AZD-8186] | 0.528 |
| CC(=O)c1c(C)c2cnc(Nc3ccc(N4CCNCC4)cn3)nc2n(C2CCCC2)c1=O [palbociclib] | 0.673 |
| Cc1c(CN2CCN(C(=O)[C@H](C)O)CC2)sc2c(N3CCOCC3)nc(-c3cnc(N)nc3)nc12 [apitolisib] | 0.121 |
| CS(=O)(=O)CCNCc1ccc(-c2ccc3ncnc(Nc4ccc(OCc5cccc(F)c5)c(Cl)c4)c3c2)o1 [lapatinib] | 0.00432 |
| CCOc1ccn(-c2ccc(F)cc2)c(=O)c1C(=O)Nc1ccc(Oc2ccnc(N)c2Cl)c(F)c1 [ASLAN002] | 0.561 |
| Nc1cc(C(F)(F)F)c(-c2cc(N3CCOCC3)nc(N3CCOCC3)n2)cn1 [buparlisib] | 0.0627 |

Same assay, conditions: 100 µM; days in culture: 212

| Structure (SMILES) | CTG-3D luminescence at 96 h |
| --- | --- |
| CC(C)n1nc(-c2ccc3oc(N)nc3c2)c2c(N)ncnc21 [sapanisertib] | 0.277 |
| C[C@@H](Nc1cc(F)cc(F)c1)c1cc(C(=O)N(C)C)cc2c(=O)cc(N3CCOCC3)oc12 [AZD-8186] | 1.2 |
| CC(=O)c1c(C)c2cnc(Nc3ccc(N4CCNCC4)cn3)nc2n(C2CCCC2)c1=O [palbociclib] | 2.52 |
| Cc1c(CN2CCN(C(=O)[C@H](C)O)CC2)sc2c(N3CCOCC3)nc(-c3cnc(N)nc3)nc12 [apitolisib] | 0.139 |
| CS(=O)(=O)CCNCc1ccc(-c2ccc3ncnc(Nc4ccc(OCc5cccc(F)c5)c(Cl)c4)c3c2)o1 [lapatinib] | 0.00417 |
| CCOc1ccn(-c2ccc(F)cc2)c(=O)c1C(=O)Nc1ccc(Oc2ccnc(N)c2Cl)c(F)c1 [ASLAN002] | 0.694 |
| Nc1cc(C(F)(F)F)c(-c2cc(N3CCOCC3)nc(N3CCOCC3)n2)cn1 [buparlisib] | 0.0312 |

Same assay, conditions: 100 µM; days in culture: 224

| Structure (SMILES) | CTG-3D luminescence at 96 h |
| --- | --- |
| CC(C)n1nc(-c2ccc3oc(N)nc3c2)c2c(N)ncnc21 [sapanisertib] | 0.17 |
| C[C@@H](Nc1cc(F)cc(F)c1)c1cc(C(=O)N(C)C)cc2c(=O)cc(N3CCOCC3)oc12 [AZD-8186] | 1.09 |
| CC(=O)c1c(C)c2cnc(Nc3ccc(N4CCNCC4)cn3)nc2n(C2CCCC2)c1=O [palbociclib] | 1.17 |
| Cc1c(CN2CCN(C(=O)[C@H](C)O)CC2)sc2c(N3CCOCC3)nc(-c3cnc(N)nc3)nc12 [apitolisib] | 0.267 |
| CS(=O)(=O)CCNCc1ccc(-c2ccc3ncnc(Nc4ccc(OCc5cccc(F)c5)c(Cl)c4)c3c2)o1 [lapatinib] | 0.000609 |
| CCOc1ccn(-c2ccc(F)cc2)c(=O)c1C(=O)Nc1ccc(Oc2ccnc(N)c2Cl)c(F)c1 [ASLAN002] | 1.18 |
| Nc1cc(C(F)(F)F)c(-c2cc(N3CCOCC3)nc(N3CCOCC3)n2)cn1 [buparlisib] | 0.136 |

Same assay, conditions: 625 fM; days in culture: 175

| Structure (SMILES) | CTG-3D luminescence at 96 h |
| --- | --- |
| CC(C)n1nc(-c2ccc3oc(N)nc3c2)c2c(N)ncnc21 [sapanisertib] | 2.01 |
| C[C@@H](Nc1cc(F)cc(F)c1)c1cc(C(=O)N(C)C)cc2c(=O)cc(N3CCOCC3)oc12 [AZD-8186] | 1.51 |
| CC(=O)c1c(C)c2cnc(Nc3ccc(N4CCNCC4)cn3)nc2n(C2CCCC2)c1=O [palbociclib] | 1.97 |
| Cc1c(CN2CCN(C(=O)[C@H](C)O)CC2)sc2c(N3CCOCC3)nc(-c3cnc(N)nc3)nc12 [apitolisib] | 1.16 |
| CS(=O)(=O)CCNCc1ccc(-c2ccc3ncnc(Nc4ccc(OCc5cccc(F)c5)c(Cl)c4)c3c2)o1 [lapatinib] | 1.88 |
| CCOc1ccn(-c2ccc(F)cc2)c(=O)c1C(=O)Nc1ccc(Oc2ccnc(N)c2Cl)c(F)c1 [ASLAN002] | 1.46 |
| Nc1cc(C(F)(F)F)c(-c2cc(N3CCOCC3)nc(N3CCOCC3)n2)cn1 [buparlisib] | 1.71 |

Same assay, conditions: 625 fM; days in culture: 189

| Structure (SMILES) | CTG-3D luminescence at 96 h |
| --- | --- |
| CC(C)n1nc(-c2ccc3oc(N)nc3c2)c2c(N)ncnc21 [sapanisertib] | 3.34 |
| C[C@@H](Nc1cc(F)cc(F)c1)c1cc(C(=O)N(C)C)cc2c(=O)cc(N3CCOCC3)oc12 [AZD-8186] | 3.16 |
| CC(=O)c1c(C)c2cnc(Nc3ccc(N4CCNCC4)cn3)nc2n(C2CCCC2)c1=O [palbociclib] | 3.4 |
| Cc1c(CN2CCN(C(=O)[C@H](C)O)CC2)sc2c(N3CCOCC3)nc(-c3cnc(N)nc3)nc12 [apitolisib] | 2.67 |
| CS(=O)(=O)CCNCc1ccc(-c2ccc3ncnc(Nc4ccc(OCc5cccc(F)c5)c(Cl)c4)c3c2)o1 [lapatinib] | 2.46 |
| CCOc1ccn(-c2ccc(F)cc2)c(=O)c1C(=O)Nc1ccc(Oc2ccnc(N)c2Cl)c(F)c1 [ASLAN002] | 2.72 |
| Nc1cc(C(F)(F)F)c(-c2cc(N3CCOCC3)nc(N3CCOCC3)n2)cn1 [buparlisib] | 2.83 |

Same assay, conditions: 625 fM; days in culture: 212

| Structure (SMILES) | CTG-3D luminescence at 96 h |
| --- | --- |
| CC(C)n1nc(-c2ccc3oc(N)nc3c2)c2c(N)ncnc21 [sapanisertib] | 1.33 |
| C[C@@H](Nc1cc(F)cc(F)c1)c1cc(C(=O)N(C)C)cc2c(=O)cc(N3CCOCC3)oc12 [AZD-8186] | 1.56 |
| CC(=O)c1c(C)c2cnc(Nc3ccc(N4CCNCC4)cn3)nc2n(C2CCCC2)c1=O [palbociclib] | 2.45 |
| Cc1c(CN2CCN(C(=O)[C@H](C)O)CC2)sc2c(N3CCOCC3)nc(-c3cnc(N)nc3)nc12 [apitolisib] | 0.788 |
| CS(=O)(=O)CCNCc1ccc(-c2ccc3ncnc(Nc4ccc(OCc5cccc(F)c5)c(Cl)c4)c3c2)o1 [lapatinib] | 1.69 |
| CCOc1ccn(-c2ccc(F)cc2)c(=O)c1C(=O)Nc1ccc(Oc2ccnc(N)c2Cl)c(F)c1 [ASLAN002] | 1.16 |
| Nc1cc(C(F)(F)F)c(-c2cc(N3CCOCC3)nc(N3CCOCC3)n2)cn1 [buparlisib] | 1.54 |

Same assay, conditions: 625 fM; days in culture: 224

| Structure (SMILES) | CTG-3D luminescence at 96 h |
| --- | --- |
| CC(C)n1nc(-c2ccc3oc(N)nc3c2)c2c(N)ncnc21 [sapanisertib] | 1.86 |
| C[C@@H](Nc1cc(F)cc(F)c1)c1cc(C(=O)N(C)C)cc2c(=O)cc(N3CCOCC3)oc12 [AZD-8186] | 2.03 |
| CC(=O)c1c(C)c2cnc(Nc3ccc(N4CCNCC4)cn3)nc2n(C2CCCC2)c1=O [palbociclib] | 1.33 |
| Cc1c(CN2CCN(C(=O)[C@H](C)O)CC2)sc2c(N3CCOCC3)nc(-c3cnc(N)nc3)nc12 [apitolisib] | 2 |

Source: the supplement of paper PMC8882468
